Common to all, as to format: biochemical
Assay [1] concerns the target APMA-activated recombinant MMP-9 (rMMP-9(A)) (Homo sapiens, UniProt P14780). Put plainly: rMMP-9(A) inhibition in Tris-HCl buffer with varied preincubation time, followed continuously for 3 h. The conditions noted are these: 100 µM, 0.1 M Tris-HCl pH 7.5, N = 4. From the text: Except for ML33, all catechol derivatives have previously been tested for binding to MMP-2, MMP-8 and MMP-9[60]. […] The Ki values for MMP-9 in the present study were higher than the IC50 values in the previous study, the exception was MT336 for which we obtained a lower value. It is not easy to point out a single factor in the experiments contributing to deviations between the studies. Both studies used a pH of 7.5 but the buffer compositions were slightly different. […] Tauro et al.[60] used a commercial active MMP-9 produced in E-coli that only contained the catalytic domain and the fibronectin-like (FnII) module. […] A factor that may contribute to differences is that after preincubation of MMP-9 with catechol derivatives and adding of the substrate for starting the reaction, we followed the reaction continuously for 30 min, while Tauro et al.[60] used an endpoint assay allowing the reaction to proceed for 2 to 4 h before the fluorescence was measured. We did some tests to determine if some of these differences could affect the binding results. In the test experiments, we used rMMP-9(A) which differs from the MMP-9(T) by a slightly different N-terminal and a largely truncated C-terminal HPX domain[57]. One hundred µM of BF466 was tested where the 0.1 M Hepes buffer pH 7.5 was exchanged to a 0.1 M Tris-HCl buffer pH 7.5. The rMMP-9(A) was preincubated with BF466 for 0, 15 and 30 min at 37 °C and the reaction was started by the addition of the substrate McaPLGL(Dpa)AR-NH2 (4 µM in the assay) following the reaction continuously for 3 h. The controls without BF466 were treated identically. […] The reaction was allowed to proceed for 4 h, and the reaction was stopped by addition of EDTA (end concentration 10 mM) and the relative fluorescence intensity determined.
The expression and purification of recombinant human full-length proMMP-9 (rpMMP-9) from Sf9 insect cells were performed as described previously. […] The amount of active MMP-9 was determined by active site titration using galardin also described previously.

The next assay concerns the target T1, thermolysin (TLN) (Bacillus thermoproteolyticus, UniProt P00800).
T1 construct: purchased Calbiochem (San Diego, CA, USA)
Put plainly: TLN inhibition, continuous initial rate assay with McaRPPGFSAFK(Dnp)-OH after 15 min preincubation. The conditions noted are these: for inhibition at 100 µM: 100 μM compound, 15 min preincubation at 37 °C, 4 μM substrate, read-out: inhibition (reduction of activity) of TLN; for Ki: substrate McaRPPGFSAFK(Dnp)-OH 4 µM, 4–6 experiments, read-out: Ki ± sd TLN. As for the experimental part:
(§1) The inhibitorial power of 100 μM of the eight catechol containing compounds was tested against the two human metalloproteases MMP-9(T) and MMP-14 and the three bacterial metalloproteases ALN, PLN and TLN (Figure 1). In order to detect putative slow and slow-tight binding, the catechol derivatives were first incubated along with the enzyme for 15 min at 37 °C. In controls without inhibitor present, enzymes and buffer were preincubated under identical conditions. Thereafter, the enzyme reaction was started by adding the relevant […] substrate and the rate was followed continuously for 30 min. […] The activity was reduced with more than 50%, by MT336 for the two MMPs, by BF482 for MMP-9(T) and by ML33 for ALN (Figure 1). In all other inhibitory studies with catechol containing compounds, the activity was reduced between 0 and 45%.
(§2) To assure that this is correct, the inhibitors BF471 and BF489 were tested against varying McaRPPGFSAFK(Dnp)-OH using TLN as described in the Experimental section. […] It should be noted that the reaction was started by adding the enzyme to the substrate-inhibitor mixtures. In the case of slow binding, the full potential of these inhibitors would not be realised by this inhibitory assay. When the activity was reduced by more than […], experiments were performed with varying concentrations of the catechol derivatives. IC50 values were obtained from dose response plots, and Ki values were determined from the IC50 values based on substrate competitive inhibition. By the use of Ki values, we can compare the binding strength of the compounds for the different enzymes and not only comparing the compounds ability to bind one enzyme. There are several possible explanations for the deviation in determined Ki value of BF471 and BF489 for TLN from the dose response plots and the double inverse plots.
(§3) The various inhibitors were dissolved in 100% DMSO giving an inhibitor concentration of 10 mM. All the inhibitory and control experiments contained a total and fixed concentration of 1.0% DMSO. […] The fixed enzyme concentration were as follows; 0.28 nM MMP-9(T), 0.05 nM MMP-9(A), 1.0 nM MMP-14, 1.4 nM ALN, 0.5 nM PLN and 0.21 nM TLN. Enzymes with and without inhibitors were pre-incubated for 15 min at 37 °C, the initial rate assays were started by adding the substrate and the reaction was followed for 30 min. Assays were performed using a Spectra Max Gemini EM micro-plate reader (Molecular Devices) or a Clario Star micro plate reader (CLARIOstar® BMG LABTECH). Assays were performed at 37 °C, using an excitation wavelength of 320 nm and an emission wavelength of 405 nm with a slit width of 10 nm. The IC50 values were calculated either in Sigma Plot (Enzyme kinetics 1.3 module) or in Graph Pad Prism 5 using Equations (1) or (2) depending on the concentration span of the used inhibitor: (1) vi/v0= 1/(1+ 10^(pIC50−pI)) (2) vi/v0= 1/(1+ [I]/IC50) where vi is the enzyme activity in the presence of inhibitor, v0 the activity in the absence of inhibitor, pI=−log [Inhibitor] in M and pIC50 = −log IC50 in M. All experiments were performed in at least triplicate.

The next assay addresses T2, pseudolysin (PLN) (Pseudomonas aeruginosa, UniProt P14756).
T2 construct: purchased Calbiochem (San Diego, CA, USA)
Put plainly: PLN inhibition, continuous initial rate assay with McaRPPGFSAFK(Dnp)-OH after 15 min preincubation. The conditions noted are these: for inhibition at 100 µM: read-out: inhibition (reduction of activity) of PLN. As for the experimental part: as §1, §2, §3

The target in a further assay is T3, aureolysin (ALN) (Staphylococcus aureus, UniProt P81177).
T3 construct: purchased BioCentrum Ltd (Kraków, Poland)
Put plainly: ALN inhibition, continuous initial rate assay with McaRPPGFSAFK(Dnp)-OH after 15 min preincubation. The conditions noted are these: for inhibition at 100 µM: read-out: inhibition (reduction of activity) of ALN, 100 μM compound, 15 min preincubation at 37 °C, 4 μM substrate. As for the experimental part: as §1, §2, §3

The target of assay [2] is T4, Human MT1-MMP/MMP-14 (catalytic domain) (Homo sapiens, UniProt P50281).
T4 construct: Human MT1-MMP/MMP-14 (catalytic domain); purchased Calbiochem (San Diego, CA, USA)
Put plainly: MMP-14 inhibition, continuous initial rate assay with McaPLGL(Dpa)AR-NH2 after 15 min preincubation. The conditions noted are these: for inhibition at 100 µM: 100 μM compound, 15 min preincubation at 37 °C, 4 μM substrate, read-out: inhibition (reduction of activity) of MMP-14; for Ki: substrate McaPLGL(Dpa)AR-NH2 4 µM, 4–6 experiments, read-out: Ki ± sd MMP-14. As for the experimental part: as §1, §2, §3

Assay [3] addresses T5, trypsin-activated MMP-9 from THP-1 cells (MMP-9(T)) (Homo sapiens, UniProt P14780).
T5 construct: endogenous in cells; host or cells: THP-1 cells stimulated with PMA
Put plainly: MMP-9(T) inhibition, continuous initial rate assay with McaPLGL(Dpa)AR-NH2 after 15 min preincubation. The conditions noted are these: for inhibition at 100 µM: read-out: inhibition (reduction of activity) of MMP-9(T); for Ki: substrate McaPLGL(Dpa)AR-NH2 4 µM, 4–6 experiments, read-out: Ki ± sd MMP-9(T). Here is the method: as §1, §2
The purified proMMP-9 was activated by trypsin, by mixing approximately 300 µg of proMMP-9 with trypsin (31 μg/ml) for 10 min at 37 °C in 0.1 M Hepes pH 7.5, 0.005% Brij35% and 10 mM CaCl2. The activation and processing of MMP-9 were terminated by adding a 50 times excess of SBTI (2.7 mg/ml) in relation to trypsin and after 10 min incubation at room temperature, the mixture was transferred and kept on ice during the kinetic and inhibition kinetic measurements. After activation, the activity was determined with 10 µM of McaPLGL(Dpa)AR-NH2 in 0.1 M Hepes pH 7.5, 0.005% Brij35% and 10 mM CaCl2 in a total assay volume of 100 µL, at 37 °C. Initial rates were measured at an excitation wavelength of 320 nm and an emission wavelength of 405 nm with a slit width of 10 nm using a Perkin Elmer LS 50 Luminescence spectrometer and the FL WinLab Software Package (Perkin Elmer). The amount of active MMP-9 was determined by active site titration using galardin as described previously.
The various inhibitors were dissolved in 100% DMSO giving an inhibitor concentration of 10 mM. All the inhibitory and control experiments contained a total and fixed concentration of 1.0% DMSO. […] The fixed enzyme concentration were as follows; 0.28 nM MMP-9(T), 0.05 nM MMP-9(A), 1.0 nM MMP-14, 1.4 nM ALN, 0.5 nM PLN and 0.21 nM TLN. Enzymes with and without inhibitors were pre-incubated for 15 min at 37 °C, the initial rate assays were started by adding the substrate and the reaction was followed for 30 min. Assays were performed using a Spectra Max Gemini EM micro-plate reader (Molecular Devices) or a Clario Star micro plate reader (CLARIOstar® BMG LABTECH). Assays were performed at 37 °C, using an excitation wavelength of 320 nm and an emission wavelength of 405 nm with a slit width of 10 nm. […]

Another assay has as its target T6, TLN (Bacillus thermoproteolyticus, UniProt P00800).
T6 construct: purchased Calbiochem (San Diego, CA, USA)
Put plainly: TLN inhibition against varying McaRPPGFSAFK(Dnp)-OH, reaction started by adding enzyme (double inverse plots). The conditions noted are these: no preincubation, read-out: Ki TLN from varying substrate. Here is the method:
as §2

Setting [4] is: catechol compounds, Ki from IC50, substrate competitive.
[5] abbreviates: 100 μM compound, 15 min preincubation at 37 °C, 4 μM substrate.

The values that follow come from article PMC7993378, “Inhibition of bacterial and human zinc-metalloproteases by bisphosphonate- and catechol-containing compounds” (Journal of Enzyme Inhibition and Medicinal Chemistry, 2021).

Like-named read-outs stand apart in the source and are kept apart here. A value given as a limit tells only on which side of the number the result lay.

T1 sequence (P00800 233-548): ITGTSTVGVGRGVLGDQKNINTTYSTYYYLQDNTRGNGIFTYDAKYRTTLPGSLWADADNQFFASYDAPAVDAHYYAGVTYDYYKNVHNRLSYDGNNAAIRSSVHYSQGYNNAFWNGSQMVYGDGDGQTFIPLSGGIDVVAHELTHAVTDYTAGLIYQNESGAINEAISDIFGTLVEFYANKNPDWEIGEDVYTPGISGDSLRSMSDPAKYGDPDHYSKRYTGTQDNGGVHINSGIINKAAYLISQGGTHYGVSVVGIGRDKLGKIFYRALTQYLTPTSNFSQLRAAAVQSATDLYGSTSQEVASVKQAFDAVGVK
T3 sequence (P81177 209-509): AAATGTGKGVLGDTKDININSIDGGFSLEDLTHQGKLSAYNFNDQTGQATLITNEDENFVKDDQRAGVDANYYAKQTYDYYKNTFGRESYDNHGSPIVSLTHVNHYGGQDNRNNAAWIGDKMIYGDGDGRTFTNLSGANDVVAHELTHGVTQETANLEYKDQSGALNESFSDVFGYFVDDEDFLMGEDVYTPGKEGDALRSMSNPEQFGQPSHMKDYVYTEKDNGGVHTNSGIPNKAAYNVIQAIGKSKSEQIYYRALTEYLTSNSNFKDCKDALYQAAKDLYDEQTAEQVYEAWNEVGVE
T2 sequence (P14756 198-498): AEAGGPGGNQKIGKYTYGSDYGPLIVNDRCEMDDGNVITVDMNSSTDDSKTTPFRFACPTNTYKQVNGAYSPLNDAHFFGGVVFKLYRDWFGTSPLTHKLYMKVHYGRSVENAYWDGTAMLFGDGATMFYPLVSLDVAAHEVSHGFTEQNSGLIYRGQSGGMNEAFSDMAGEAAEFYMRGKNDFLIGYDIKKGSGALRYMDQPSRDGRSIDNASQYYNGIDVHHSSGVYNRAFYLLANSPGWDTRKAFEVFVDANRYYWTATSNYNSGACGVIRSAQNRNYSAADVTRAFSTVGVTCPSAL
T5 sequence (P14780 107-707 limits assumed): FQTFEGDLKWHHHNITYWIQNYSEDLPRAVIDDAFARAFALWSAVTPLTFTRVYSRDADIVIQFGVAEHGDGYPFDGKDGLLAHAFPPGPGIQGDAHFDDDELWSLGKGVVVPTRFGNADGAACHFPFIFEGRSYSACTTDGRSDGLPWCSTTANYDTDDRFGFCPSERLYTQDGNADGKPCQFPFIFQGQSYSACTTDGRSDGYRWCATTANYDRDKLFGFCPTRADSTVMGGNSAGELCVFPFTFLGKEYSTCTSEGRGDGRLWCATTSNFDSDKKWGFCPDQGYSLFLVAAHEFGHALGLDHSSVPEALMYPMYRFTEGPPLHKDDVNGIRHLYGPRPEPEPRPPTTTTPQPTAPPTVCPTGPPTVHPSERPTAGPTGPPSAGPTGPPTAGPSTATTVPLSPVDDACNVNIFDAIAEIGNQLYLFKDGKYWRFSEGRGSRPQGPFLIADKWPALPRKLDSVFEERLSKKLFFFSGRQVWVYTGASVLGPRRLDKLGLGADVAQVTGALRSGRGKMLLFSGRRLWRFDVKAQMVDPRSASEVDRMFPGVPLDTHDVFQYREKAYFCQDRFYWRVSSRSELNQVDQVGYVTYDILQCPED
Sequence of APMA-activated recombinant MMP-9 (rMMP-9(A)) (P14780 107-444 limits assumed): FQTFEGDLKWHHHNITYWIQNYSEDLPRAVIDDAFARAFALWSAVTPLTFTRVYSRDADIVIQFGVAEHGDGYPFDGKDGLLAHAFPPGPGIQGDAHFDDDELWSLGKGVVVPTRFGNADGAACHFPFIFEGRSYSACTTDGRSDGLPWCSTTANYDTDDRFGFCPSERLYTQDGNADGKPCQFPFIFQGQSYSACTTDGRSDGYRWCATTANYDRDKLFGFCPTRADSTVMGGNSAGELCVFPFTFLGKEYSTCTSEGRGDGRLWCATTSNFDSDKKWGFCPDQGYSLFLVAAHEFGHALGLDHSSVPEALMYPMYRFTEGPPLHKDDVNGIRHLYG
T6 sequence (P00800 233-548): as the sequence (P00800 233-548) above

On to `O=S(=O)(NCc1cccc(O)c1O)c1ccc(-c2ccccc2)cc1` [BF466], for which the “vi/v0 rMMP-9(A)” value in assay [1] (preincubation 0 min at 37 °C) is 0.74 ± 0.04; in assay [1] (preincubation 15 min at 37 °C), 0.68 ± 0.02; in assay [1] (preincubation 30 min at 37 °C), 0.73 ± 0.05.
Take `O=S(=O)(Nc1ccc(O)c(O)c1)c1ccc(-c2ccccc2)cc1` [BF471]: the inhibition at 100 µM (on thermolysin (TLN); on pseudolysin (PLN); on aureolysin (ALN); in assay [2]; in assay [3] (setting [5])) was more than 50% each time. Also, the inhibitory constant (Ki) on thermolysin (TLN) (setting [4]) worked out at 13 ± 2 µM; at pseudolysin (PLN) it was 9 ± 3 µM; at aureolysin (ALN), 49 ± 5 µM; in assay [3] (setting [4]), 13 ± 2 µM; at TLN, 57 ± 6 µM.
With `O=S(=O)(NCc1cccc(O)c1O)c1ccc(Br)cc1` [BF482], the “inhibition (reduction of activity) of PLN” value at pseudolysin (PLN) (setting [5]) was “did not affect”. In assay [3] (setting [5]), the inhibition at 100 µM was more than 50%.
`O=S(=O)(NCc1ccc(O)c(O)c1)c1ccc(Br)cc1` [BF486]: the “inhibition (reduction of activity) of MMP-9(T)” value in assay [3] (setting [5]) is reported as “did not affect”.
Take `O=S(=O)(Nc1ccc(O)c(O)c1)c1ccc(Br)cc1` [BF489]: the inhibition at 100 µM (at thermolysin (TLN); at pseudolysin (PLN); on aureolysin (ALN); in assay [2]; in assay [3] (setting [5])) was more than 50% throughout. Also, the inhibition constant Ki on thermolysin (TLN) (setting [4]) is 14 ± 5 µM; at pseudolysin (PLN), 16 ± 3 µM; in assay [2] (setting [4]), 8.3 ± 0.6 µM; in assay [3] (setting [4]), 12.6 ± 0.6 µM; at TLN, 73 ± 11 µM.
For the molecule `COc1ccc(S(=O)(=O)NC(P(=O)(O)O)P(=O)(O)O)cc1` [LS4], the Ki on pseudolysin (PLN) came to 58 ± 4 µM.
With `O=S(=O)(Nc1cccc(O)c1O)c1ccc(-c2ccccc2)cc1` [ML32], the inhibitory constant (Ki) at pseudolysin (PLN) was determined as 38 ± 8 µM; in assay [2] (setting [4]), 19 ± 0.8 µM; in assay [3] (setting [4]), 51 ± 17 µM. Besides, the inhibition at 100 µM (on pseudolysin (PLN); on aureolysin (ALN); in assay [2]; in assay [3] (setting [5])) was more than 50% throughout.
As for `COc1ccc(S(=O)(=O)Nc2cccc(O)c2O)cc1` [ML33], on aureolysin (ALN), the inhibition at 100 µM was more than 50%.
As to `O=P(O)(O)C(Nc1ccc(Cl)cc1)P(=O)(O)O` [ML45], the Ki at pseudolysin (PLN) came out at 37 ± 6 µM; in assay [2] (bisphosphonates) it was 17 ± 1 µM.
For the molecule `O=C(NCc1ccc(-c2ccccc2)cc1)c1cccc(O)c1O` [MT336], the inhibition at 100 µM in assay [2] and in assay [3] (setting [5]) was more than 50% throughout. Further, the inhibition constant Ki in assay [2] (setting [4]) is 12 ± 1 µM; in assay [3] (setting [4]), 13 ± 1 µM.
Turning to `O=P(O)(O)C(Nc1ccc(-c2ccccc2)cc1)P(=O)(O)O` [MT363], the Ki on thermolysin (TLN) (bisphosphonates) is 7 ± 1 µM; on pseudolysin (PLN) it was 12 ± 4 µM; in assay [2] (bisphosphonates), 7.2 ± 0.6 µM; in assay [3] (bisphosphonates), 6.6 ± 0.4 µM.
For the molecule `O=[N+]([O-])c1ccc(S(=O)(=O)NC(P(=O)(O)O)P(=O)(O)O)cc1` [RC2], the Ki stood at 16.2 ± 0.4 µM at thermolysin (TLN) (bisphosphonates) and 22 ± 3 µM at pseudolysin (PLN).

For orientation: inhibition means the share of the control response that was lost under treatment. What is called Ki is the equilibrium dissociation constant of an inhibitor or competing ligand from its target.
